Like-named read-outs stand apart in the source and are kept apart here.
Columns and labels:
BT-474 cells = experiment: Combination of poziotinib with other anticancer drugs, synergy on proliferation; assay type: cell-based; settings: HER2-overexpressed, ER-negative breast cancer cells
MBA-MB-453 cells = experiment: as above; assay type: cell-based; settings: HER2 overexpressed trastuzumab resistant breast cancer cells; concentrations equal to or lower than the GI50 of poziotinib alone
HER2-positive GC [1] = settings: monotherapy; cited from earlier work
[2] = test system: NSCLC patients having EGFR activating mutations; settings: in vivo; cited from earlier work
HER2-amplified GC cells = settings: in vitro; cited from earlier work
[3] = test system: patients with HER2-positive GC; experiment: Phase I/II study of poziotinib combined with paclitaxel and trastuzumab: safety (TEAEs, DLT, MTD, dose adjustments); assay type: in vivo; settings: for MTD of poziotinib: combined with paclitaxel and trastuzumab
Description: (§1) A prospective phase I/II study was conducted at 11 treatment centers in Korea. Patients with HER2-positive GC who previously had received one or more lines of chemotherapy were enrolled. Enrolled patients received oral poziotinib (8 mg or 12 mg) once daily for 14 days, followed by 7 days off.
(§2) Patients. […] Key exclusion criteria included: a history of hypersensitivity to drugs containing Cremophor® EL and trastuzumab; previous exposure to taxanes, and symptomatic central nervous system metastasis.
(§3) Treatment Procedures. […] DLTs were evaluated in 6 patients at each poziotinib dose level.
(§4) Safety Analyses and Efficacy. Adverse events (AEs) and TEAEs were evaluated using National Cancer Institute-Common Terminology Criteria for Adverse Events (version 4.03). DLTs were defined as grade […] non-hematologic toxicities (except for alopecia); grade ≥3 diarrhea, nausea and vomiting, despite maximal dosage of anti-diarrhea and/or anti-emetic medication (as applicable); and grade 4 neutropenia sustained for ≥7 days, grade 3-4 neutropenia with fever or infection, grade 4 thrombocytopenia and grade 3 thrombocytopenia sustained for 7 days, or with accompanying bleeding, or requiring transfusion. Left ventricular ejection fraction (LVEF) assessment was performed at baseline, on day 1 of the first 3 cycles and every 3 cycles thereafter. All patients who received at least one dose of poziotinib were included in the safety analysis. Tumor response was evaluated by CT or MRI of the thorax, abdomen and pelvis every 6 weeks using RECIST version 1.1, according to investigator assessment.
(§5) Statistical Analysis. The primary objective of phase I was to assess the safety and tolerability of poziotinib and to determine the MTD of poziotinib when combined with paclitaxel and trastuzumab. The primary objective of the phase II part was to assess the objective response rate (ORR) of poziotinib combined with paclitaxel and trastuzumab. The secondary objectives were to evaluate the safety and tolerability, progression-free survival (PFS), time to tumor progression (TTP) and duration of overall response (DOR).

[4] = cited from earlier work; for ORR / median PFS: monotherapy
[5] = test system: patients with HER2-positive GC; experiment: Phase I/II study of poziotinib combined with paclitaxel and trastuzumab: efficacy (tumor response RECIST 1.1, survival); assay type: in vivo, human
Description: as §1, §2, §3, §4, §5
For phase II, it was hypothesized that an ORR <5% would be ineffective and an ORR >20% would be considered to be clinically significant. Sample size was calculated using Simon's 2-stage minimax design, with 80% power and a significance level of 5%. Of the total 27 target subjects, 13 were required in the 1st stage. If the tumor response was 0 out of 13 patients, the study was planned to be terminated early. However, if at least 1 response was observed, an additional 14 patients would be enrolled in the study.

MDA-MB-468 cells = experiment: Combination of poziotinib with other anticancer drugs, synergy on proliferation; assay type: cell-based; settings: HER2 negative, ER-negative, HER1-overexpressed triple negative breast cancer cells
MCF-7 cells = experiment: as above; assay type: cell-based; settings: not HER1 and HER2-overexpressed and ER-positive
SK-BR-3 cells = experiment: as above; assay type: cell-based; settings: HER2-overexpressed and ER-negative
MDA-MB-361 cells = experiment: as above; assay type: cell-based; settings: HER2-overexpressed, ER-positive, trastuzumab resistant
[6] = test system: HER2-positive breast cancer; settings: in combination with docetaxel plus trastuzumab; cited from earlier work
HER2-positive GC [7] = settings: in combination with chemotherapy; cited from earlier work
[8] = test system: patients with HER2-positive GC; settings: patients who failed prior fluoropyrimidine and platinum, cited from earlier work
[9] = All patients, Phase I 12 mg (5)
[10] = All patients, Phase I Total (12)
[11] = All patients, Phase II RD: 8 mg (32)
[12] = All patients, Total population Total (44)
[13] = Trastuzumab-naïve patients, Phase I 8 mg (n 3)
[14] = Trastuzumab-naïve patients, Phase I Total (n 3)
[15] = Trastuzumab-naïve patients, Phase II RD: 8 mg (n 8)
[16] = Trastuzumab-naïve patients, Total population (n 11)
[17] = Trastuzumab-pretreated Patients, Phase I 8 mg (n 4)
[18] = Trastuzumab-pretreated Patients, Phase I 12 mg (n 5)
[19] = Trastuzumab-pretreated Patients, Phase I Total (n 9)
[20] = Trastuzumab-pretreated Patients, Phase II RD: 8 mg (n 24)
[21] = Trastuzumab-pretreated Patients, Total population (n 33)

With `O=c1[nH]cc(F)c(=O)[nH]1` [5-FU, 5-fluorouracil] the “synergistic effect when combined with poziotinib” value (shortened to “synergistic effect when combined”) (BT-474 cells) was “high synergistic effect” and the “synergistic effect when combined” value (MBA-MB-453 cells) was “excellent synergistic effect”.

In the case of `N.N.[Cl][Pt][Cl]` [cisplatin], the “synergistic effect when combined” value (BT-474 cells) is reported as “high synergistic effect” and the “synergistic effect when combined” value (MBA-MB-453 cells) is reported as “excellent synergistic effect”.

For `COc1cc2ncnc(Nc3ccc(F)c(Cl)c3)c2cc1NC(=O)/C=C/CN1CCCCC1` [dacomitinib], the ORR (HER2-positive GC [1]) is listed as 7.4% and the “median PFS” value (HER2-positive GC [1]) is listed as 2.1 months.

In the case of `C#Cc1cccc(Nc2ncnc3cc(OCCOC)c(OCCOC)cc23)c1` [erlotinib], the “Patients observed to be resistant due to the EGFR T790M mutation” value [2] is listed as “about 60%”.

In the case of `CS(=O)(=O)CCNCc1ccc(-c2ccc3ncnc(Nc4ccc(OCc5cccc(F)c5)c(Cl)c4)c3c2)o1` [lapatinib], the “anti-tumor activity of dual blockade with trastuzumab” value (HER2-amplified GC cells) is given as “highly synergistic anti-tumor activity”.

In the case of `CC(=O)O[C@H]1C(=O)[C@@]2(C)[C@H]([C@H](OC(=O)c3ccccc3)[C@]3(O)C[C@H](OC(=O)[C@H](O)[C@@H](NC(=O)c4ccccc4)c4ccccc4)C(C)=C1C3(C)C)[C@]1(OC(C)=O)CO[C@@H]1C[C@@H]2O` [paclitaxel], the “synergistic effect when combined” value (BT-474 cells) is reported as “high synergistic effect” and the “synergistic effect when combined” value (MBA-MB-453 cells) is reported as “excellent synergistic effect”.

In the case of `C=CC(=O)N1CCC(Oc2cc3c(Nc4ccc(Cl)c(Cl)c4F)ncnc3cc2OC)CC1` [poziotinib, 1-[4-[4-(3,4-dichloro-2-fluorophenylaminino)-7-methoxyquinazolin-6-yloxy]-piperidin-1-yl]prop-2-en-1-one], the “TEAEs by Maximum Severity: Grade 5 (death)” value ([3]; Phase I 12 mg (n = 5)) is reported as 0 n, the “TEAEs leading to death” value ([3]; Phase I 12 mg (n = 5)) is reported as 0 n and the MTD of poziotinib ([3]; Phase I part of the current study) is reported as 8 mg/day. For the same molecule, the MTD of poziotinib ([3]; Phase I, once daily 14 days, 7 days off) was 8 mg, the “AE related to poziotinib: Fatigue” value ([3]; human, in vivo) was 0 n and the “AE related to poziotinib: Myalgia” value ([3]; human, in vivo) was 0 n. The “AE related to poziotinib: Vomiting” value ([3]; human, in vivo) was 0 n, the “Left ventricular systolic dysfunction (LVSD)” value ([3]; human, in vivo) was “no grade 3 or 4 left ventricular systolic dysfunction” and the “TEAE ≥Grade 3: Abdominal pain” value ([3]; human, in vivo) was 0 n. For the same molecule, the “TEAE ≥Grade 3: Mucosal inflammation” value ([3]; human, in vivo) was 0 n, the “TEAE ≥Grade 3: Pruritus” value ([3]; human, in vivo) was 0 n and the “TEAE ≥Grade 3: Rash” value ([3]; human, in vivo) was 0 n. The “TEAE ≥Grade 3: Stomatitis” value ([3]; human, in vivo) was 0 n, the “TEAEs by Maximum Severity: Grade 1 (mild)” value ([3]; human, in vivo) was 0 n and the “MTD of poziotinib as monotherapy” value ([4]; continuous dosing) was 18 mg/day. For the same molecule, the “MTD of poziotinib as monotherapy” value ([4]; intermittent dosing (14 days on and 7 days off)) was 24 mg/day, the ORR ([4]; continuous dosing schedule) was 21% and the “median PFS” value ([4]; continuous dosing schedule) was 9.0 weeks. For the same molecule, the ORR ([4]; intermittent dosing schedule) was 16%, the “median PFS” value ([4]; intermittent dosing schedule) was 12.0 weeks and the “Overall survival, Median” value ([5]; All patients, Phase I 8 mg (7)) was 30.6 weeks. For the same molecule, the “Progression free survival, Median” value ([5]; All patients, Phase I 8 mg (7)) was 17.1 weeks, the “Time to tumor progression, Median” value ([5]; All patients, Phase I 8 mg (7)) was 18.2 weeks and the “Overall survival, Median” value [5, 9] was 19.9 weeks. For the same molecule, the “Progression free survival, Median” value [5, 9] was 17.7 weeks, the “Time to tumor progression, Median” value [5, 9] was 17.7 weeks and the “Overall survival, Median” value [5, 10] was 30.6 weeks. The “Progression free survival, Median” value [5, 10] was 17,7 weeks, the “Time to tumor progression, Median” value [5, 10] was 17.9 weeks and the “Overall survival, Median” value [5, 11] was 29.5 weeks. The “Progression free survival, Median” value [5, 11] was 13.0 weeks, the “Time to tumor progression, Median” value [5, 11] was 15.0 weeks and the “Overall survival, Median” value [5, 12] was 29.5 weeks. The “Progression free survival, Median” value [5, 12] was 16.0 weeks, the “Time to tumor progression, Median” value [5, 12] was 17.1 weeks and the “Best overall response: CR” value ([5]; Phase I 8 mg (n = 7)) was 0 n. The “Duration of overall response, Median” value ([5]; Phase I 8 mg, 2 patients) was 14.5 weeks, the “Best overall response: CR” value ([5]; Phase I 12 mg (n = 5)) was 0 n and the “Best overall response: unknown” value ([5]; Phase I 12 mg (n = 5)) was 0 n. For the same molecule, the “Duration of overall response, Median” value ([5]; Phase I 12 mg, 2 patients) was 20.4 weeks, the “Duration of overall response, Median” value ([5]; Phase I Total) was 15.0 weeks and the “Best overall response: CR” value ([5]; Phase I Total (n = 12)) was 0 n. The “Patients with tumor shrinkage” value ([5]; Phase II) was “Twenty”, the “Duration of overall response, Median” value ([5]; Phase II RD: 8 mg, 7 patients) was 26.8 weeks and the “Overall survival, Median” value [5, 13] was 194.9 weeks. The “Progression free survival, Median” value [5, 13] was 30.6 weeks, the “Overall survival, Median” value [5, 14] was 194.9 weeks and the “Progression free survival, Median” value [5, 14] was 30.6 weeks. The Disease control rate [5, 15] was 5 n, the “Overall survival, Median” value [5, 15] was 42.6 weeks and the “Progression free survival, Median” value [5, 15] was 18.7 weeks. For the same molecule, the “Overall survival, Median” value [5, 16] was 59.2 weeks, the “Progression free survival, Median” value [5, 16] was 20.7 weeks and the “Overall survival, Median” value [5, 17] was 30.6 weeks. For the same molecule, the “Progression free survival, Median” value [5, 17] was 15.5 weeks, the “Overall survival, Median” value [5, 18] was 19.9 weeks and the “Progression free survival, Median” value [5, 18] was 17.7 weeks. For the same molecule, the “Overall survival, Median” value [5, 19] was 21.1 weeks, the “Progression free survival, Median” value [5, 19] was 17.7 weeks and the “Overall survival, Median” value [5, 20] was 29.5 weeks. For the same molecule, the “Progression free survival, Median” value [5, 20] was 13.0 weeks, the “Overall survival, Median” value [5, 21] was 29.5 weeks and the “Progression free survival, Median” value [5, 21] was 15.0 weeks.

With `CCC1=C[C@@H]2CN(C1)Cc1c([nH]c3ccccc13)[C@@](C(=O)OC)(c1cc3c(cc1OC)N(C)[C@H]1[C@@](O)(C(=O)OC)[C@H](OC(C)=O)[C@]4(CC)C=CCN5CC[C@]31[C@@H]54)C2` [vinorelbine] the “synergistic effect when combined” value (BT-474 cells) was “synergistic effect was not observed”, the “synergistic effect when combined” value (MDA-MB-468 cells) was “synergistic effect was observed” and the “synergistic effect when combined” value (MCF-7 cells) was “synergy at every concentration”. For the same molecule, the “synergistic effect when combined” value (SK-BR-3 cells) was “sufficient effect was observed to indicate synergy” and the “synergistic effect when combined” value (MDA-MB-361 cells) was “synergistic effect at some concentrations”.

For “pertuzumab: anti-HER2 antibody used for dual blockade with trastuzumab”, the “Effect on OS” value [6] is listed as “significantly increased OS” and the “Effect on OS” value (HER2-positive GC [7]) is listed as “did not extend OS”.

In the case of trastuzumab emtansine, the ORR [8] is listed as 20.6% and the “Efficacy compared with paclitaxel” value ([8]; phase III) is listed as “not superior to paclitaxel”.

— US20210260064A1, “POZIOTINIB COMBINATIONS WITH AN ANTI-HER1, HER2 OR HER4 ANTIBODY AND METHODS OF USE THEREOF” (Spectrum Pharmaceuticals, Inc., priority 2018, published 2021)
